From patent publication US20110281852A1 (priority 2010, published 2011)

Columns and labels:
3T3-L1 cells [1] = test: MTT assay, 3T3-L1 viability during differentiation with clozapine, risperidone, berberine (Example 2); assay type: cell-based, mouse; details: day 8
Method: Cell culture and drug treatment: 3T3-L1 cells (American Type Culture Collection, Manassas, Va., USA) were cultured at 37° C. in a humidified 5% CO2 atmosphere and grown in a DMEM (Sigma-Aldrich, St. Louis, Mo. USA) supplemented with 10% Fetal Bovine Serum (FBS, Atlanta Biologicals Corp., Lawrenceville, Ga., USA), 100 units/ml penicillin and 100 μg/ml streptomycin. Differentiation was induced by addition of 167 nM insulin, 520 μM isobutylmethylxanthine (IBMX), and 1 μM dexamethasone for 2 days and then only with 167 nM insulin for 6 days. Detailed protocol was described as our previous report (Hu et al., Phytomedicine (2009) 16(9):864-873).
Medium was removed after differentiation and treatment for 8 days, MTT (Methylthiazolyldiphenyl—tetrazolium bromide 0.5 mg/ml, 50 μl/well) was added.

3T3-L1 cells [2] = test: Oil-Red-O staining and quantification, clozapine/risperidone induced adipogenesis in 3T3-L1 (Example 2); assay type: cell-based, mouse; details: 8 μM berberine, 8 days
Method: Detailed protocol was described as our previous report (Hu et al., Phytomedicine (2009) 16(9):864-873).
Oil-Red-O staining and quantification: Oil-Red-O Staining and its quantification were performed as previously reported (Liu et al., Sinica (2004) 25:1052-1057). Briefly, medium was removed and cells were washed with PBS twice, fixed with 3.7% formalin at room temperature for 30 min, then rinsed with pure water, added 60% isopropanol and incubated for 5 minutes, then moved out isopropanol and stained cells with diluted Oil-Red-O solution (Oil-Red-O store solution (3 mg/ml in pure isopropanol): water=3:2) at room temperature for 10 min. Then the diluted Oil-Red-O solution was removed and cells were washed 3 times with pure water. Images were obtained using an Olympus IX70 inverted microscope equipped for phase-contrast microscopy (Olympus, Tokyo, Japan). After staining, the cells were washed twice with 70% ethanol to remove excess stain. Stained oil droplets in the cells were dissolved in isopropanol containing 4% Nonidet-P40 (Fisher Scientific, Pittsburgh, Pa., USA) shaking in 37° C. at speed 100 rpm for 1 hour, and OD values were measured at an absorbance of 490 nm and then normalized with control group.

C/EBPα = test: Immunoblotting, C/EBPα protein in 3T3-L1; assay type: cell-based, mouse; details: 8 days
Method: Immunoblotting: Protein expression of SREBP-1, PPARγ, and C/EBPα relative to […] was assessed by Western Blot. Total proteins were isolated from 3T3-L1 cells treated with compounds or vehicles for 8 days. The cells were washed twice with PBS, lysed in a HEPES-Tx-PI buffer ([…], 5 mM EDTA, 350 mM Sucrose, 1 μg/ml leupeptin, 1 μg/ml pepstatin, 1% Triton-X, 1 mM PMSF), processed with 25G needles and centrifuged at 12,000 rpm for 5 min. Protein concentration was determined using the Micro BCA Protein Assay Kit (Fisher Scientific, Pittsburgh, Pa., USA) following the manufacturers instructions. 25 μg proteins were loaded and separated by electrophoresis using the BioRad Electrophoretic System (65 V for 7 hour). The proteins were then transferred to nitrocellulose membranes at 40 V overnight. The membrane was blocked for 1 hour at room temperature in 5% nonfat milk in Tris-buffered saline (TBS), then washed with Tween-20-TBS (TTBS, 0.1% Tween-20) three times (15 min, 5 min, 5 min), followed by incubation with primary antibodies SREBP-1 (dilution 1:200), PPARγ (dilution 1:200), C/EBPα (dilution 1:200) (all purchased from Santa Cruz Biotechnology, Santa Cruz, Calif., USA) and […] (dilution 1:1000, Sigma-Aldrich, St. Louis, Mo., USA) at room temperature for 2 hours. […]

[3] = Serum triglyceride assay in mice; assay type: in vivo, mouse
Method: (§1) Six mice per subgroup were obtained finally.
(§2) Serum glucose, triglyceride, cholesterol assay: Blood samples from each mouse were collected and serum was separated by centrifugation for the measurement of levels of glucose, triglyceride and total cholesterol. Serum glucose concentrations were analyzed using Glucose (HK) Assay Kit (Sigma-aldrich, Saint Louis, Mo., USA). Serum triglyceride concentrations were analyzed using Serum Triglyceride Determination Kit (Sigma-aldrich, Saint Louis, Mo., USA). Serum cholesterol concentrations were analyzed using Amplex® Red Cholesterol Assay Kit (Invitrogen, Carlsbad, Calif., USA). All experimental assays were done according to the manufacturer's instructions.

[4] = Serum total cholesterol assay in mice; assay type: in vivo, mouse
Method: as §1, §2

[5] = FD mice, 1.5 mg/kg/day, 36 days

For `COc1ccc2cc3[n+](cc2c1OC)CCc1cc2c(cc1-3)OCO2.[Cl-]` [berberine, Berberine (Chloride Form)], the “decrease of cell viability vs no berberine treated group” value (3T3-L1 cells [1]; 8 μM berberine combined with 0 μM clozapine) was 22.3%, the “decrease of cell viability vs no berberine treated group” value (3T3-L1 cells [1]; 8 μM berberine combined with 0 μM risperidone) was 17.8% and the “decrease of cell viability vs no berberine treated group” value (3T3-L1 cells [1]; 8 μM berberine combined with 15 μM clozapine) was 16.5%. The “decrease of cell viability vs no berberine treated group” value (3T3-L1 cells [1]; 8 μM berberine combined with 25 μM risperidone) was 19.5%, the “decrease of cell viability vs no berberine treated group” value (3T3-L1 cells [1]; 8 μM berberine combined with 30 μM clozapine) was 15% and the “decrease of cell viability vs no berberine treated group” value (3T3-L1 cells [1]; 8 μM berberine combined with 50 μM risperidone) was 20.2%. The “reduction in lipid content vs no berberine treated group” value (3T3-L1 cells [2]; 15 μM clozapine group) was 78.5%, the “reduction in lipid content vs no berberine treated group” value (3T3-L1 cells [2]; 25 μM risperidone group) was 78.7% and the “reduction in lipid content vs no berberine treated group” value (3T3-L1 cells [2]; 30 μM clozapine group) was 73.2%. For the same compound, the “reduction in lipid content vs no berberine treated group” value (3T3-L1 cells [2]; 50 μM risperidone group) was 81%, the “reduction in lipid content vs no berberine treated group” value (3T3-L1 cells [2]; control group (clozapine series)) was 70% and the “reduction in lipid content vs no berberine treated group” value (3T3-L1 cells [2]; control group (risperidone series)) was 72%. For the same compound, the “decrease of C/EBPα protein expression vs clozapine treated group” value (C/EBPα; 8 μM berberine + 15 μM clozapine) was 73%, the “decrease of C/EBPα protein expression vs risperidone treated group” value (C/EBPα; 8 μM berberine + 50 μM risperidone) was 68% and the “reduction of serum triglyceride level vs control treated group” value (from here on “reduction of serum triglyceride level”) ([3]; FD mice, 0.75 mg/kg/day) was 31.2%. The serum triglyceride level ([3]; FD mice, 0.75 mg/kg/day, 36 days (control 135.6±17.0)) was 93.2 ± 20.8 mg/dL, the “reduction of serum triglyceride level” value ([3]; FD mice, 1.5 mg/kg/day) was 25.2% and the serum triglyceride level [3, 5] was 101.4 ± 9.7 mg/dL. The “reduction of serum triglyceride level” value ([3]; FD mice, 3 mg/kg/day) was 37.8%, the serum triglyceride level ([3]; FD mice, 3 mg/kg/day, 36 days) was 84.3 ± 18 mg/dL and the serum triglyceride level ([3]; ND mice, 3 mg/kg/day (control 70.7±14)) was 70.7 ± 12.8 mg/dL. The “reduction of serum total cholesterol level” value ([4]; FD mice, 0.75 mg/kg/day) was 18.7%, the “serum total cholesterol level” value ([4]; FD mice, 0.75 mg/kg/day, 36 days (control 152.4±15.2)) was 123.9 ± 16.5 mg/dL and the “reduction of serum total cholesterol level” value ([4]; FD mice, 1.5 mg/kg/day) was 22.2%. For the same compound, the “serum total cholesterol level” value [4, 5] was 118.5 ± 14.7 mg/dL, the “reduction of serum total cholesterol level” value ([4]; FD mice, 3 mg/kg/day) was 28% and the “serum total cholesterol level” value ([4]; FD mice, 3 mg/kg/day, 36 days) was 109.8 ± 22.7 mg/dL. The “serum total cholesterol level” value ([4]; ND mice, 3 mg/kg/day (control 96.5±16.5)) was 97.4 ± 18.3 mg/dL.
